pIC50: −log10 of the molar value.
What was measured:
Format in all cases: functional
[1] = tested on: NCI-H460; test: Cytotoxicity against human NCI-H460 cell assessed as cell death at 10 nM after 12 hrs by Hoechst 33342/propidium iodide staining based fluorescence microscopy
[2] = tested on: M14; test: Cytotoxicity against human M14 cells after 48 hrs by sulforhodamine B assay; conditions: M14, 48 h
[3] = tested on: NCI-H460; test: Cytotoxicity against human NCI-H460 cells in serum free medium assessed as cell death at 10 uM after 12 hrs by Hoechst 33342/propidium iodide staining based fluorescence microscopy
[4] = tested on: NCI-H460; test: Cytotoxicity against human NCI-H460 cell assessed as cell death at 1 uM after 12 hrs by Hoechst 33342/propidium iodide staining based fluorescence microscopy
[5] = tested on: NCI-H460; test: Cytotoxicity against human NCI-H460 cell assessed as cell death at 100 uM after 12 hrs by Hoechst 33342/propidium iodide staining based fluorescence microscopy
[6] = tested on: OVCAR-8; test: Cytotoxicity against human OVCAR8 cells after 48 hrs by sulforhodamine B assay; conditions: OVCAR-8, 48 h
[7] = tested on: SF-539; test: Cytotoxicity against human SF539 cells after 48 hrs by sulforhodamine B assay; conditions: SF-539, 48 h
[8] = tested on: NCI-H460; test: Cytotoxicity against human NCI-H460 cell assessed as cell death at 100 nM after 12 hrs by Hoechst 33342/propidium iodide staining based fluorescence microscopy
[9] = tested on: HOP-92; test: Cytotoxicity against human HOP92 cells after 48 hrs by sulforhodamine B assay; conditions: HOP-92, 48 h
[10] = tested on: NCI-H322M; test: Cytotoxicity against human NCI-H322M cells after 48 hrs by sulforhodamine B assay
[11] = tested on: DU-145; test: Cytotoxicity against human DU145 cells after 48 hrs by sulforhodamine B assay; conditions: DU-145, 48 h
[12] = tested on: SK-MEL-28; test: Cytotoxicity against human SK-MEL-28 cells after 48 hrs by sulforhodamine B assay; conditions: SK-MEL-28, 48 h
[13] = tested on: SW-620; test: Cytotoxicity against human SW620 cells after 48 hrs by sulforhodamine B assay; conditions: SW-620, 48 h
[14] = tested on: NCI-H226; test: Cytotoxicity against human NCI-H226 cells after 48 hrs by sulforhodamine B assay; conditions: NCI-H226, 48 h
[15] = tested on: Hs-578T; test: Cytotoxicity against human Hs578T cells after 48 hrs by sulforhodamine B assay
[16] = tested on: MOLT-4; test: Cytotoxicity against human MOLT4 cells after 48 hrs by sulforhodamine B assay; conditions: MOLT-4, 48 h
[17] = tested on: NCI-H460; test: Cytotoxicity against human NCI-H460 cell assessed as cell death at 500 nM after 12 hrs by Hoechst 33342/propidium iodide staining based fluorescence microscopy
[18] = tested on: HCT-15; test: Cytotoxicity against human HCT15 cells after 48 hrs by sulforhodamine B assay; conditions: HCT-15, 48 h
[19] = tested on: COLO 205; test: Cytotoxicity against human COLO205 cells after 48 hrs by sulforhodamine B assay; conditions: COLO 205, 48 h
[20] = tested on: MCF7; test: Cytotoxicity against human MCF7 cells after 48 hrs by sulforhodamine B assay; conditions: MCF7, 48 h
[21] = tested on: UACC-62; test: Cytotoxicity against human UACC62 cells after 48 hrs by sulforhodamine B assay; conditions: UACC-62, 48 h
[22] = tested on: SF-295; test: Cytotoxicity against human SF295 cells after 48 hrs by sulforhodamine B assay; conditions: SF-295, 48 h
[23] = tested on: UO-31; test: Cytotoxicity against human UO31 cells after 48 hrs by sulforhodamine B assay; conditions: UO-31, 48 h
[24] = tested on: SK-MEL-5; test: Cytotoxicity against human SK-MEL-5 cells after 48 hrs by sulforhodamine B assay; conditions: SK-MEL-5, 48 h
[25] = tested on: MDA-MB-231; test: Cytotoxicity against human MDA-MB-231 cells after 48 hrs by sulforhodamine B assay; conditions: MDA-MB-231, 48 h
[26] = tested on: MDA-MB-435; test: Cytotoxicity against human MDA-MB-435 cells after 48 hrs by sulforhodamine B assay; conditions: MDA-MB-435, 48 h
[27] = tested on: RPMI-8226; test: Cytotoxicity against human RPMI8226 cells after 48 hrs by sulforhodamine B assay; conditions: RPMI-8226, 48 h
[28] = tested on: NCI-H460; test: Cytotoxicity against human NCI-H460 cell assessed as cell death at 50 nM after 12 hrs by Hoechst 33342/propidium iodide staining based fluorescence microscopy
[29] = tested on: SN12C; test: Cytotoxicity against human SN12C cells after 48 hrs by sulforhodamine B assay
[30] = tested on: LOX IMVI; test: Cytotoxicity against human LOXIMVI cells after 48 hrs by sulforhodamine B assay
[31] = tested on: OVCAR-4; test: Cytotoxicity against human OVCAR4 cells after 48 hrs by sulforhodamine B assay; conditions: OVCAR-4, 48 h
[32] = tested on: A498; test: Cytotoxicity against human A498 cells after 48 hrs by sulforhodamine B assay; conditions: A498, 48 h
[33] = tested on: U-251; test: Cytotoxicity against human U251 cells after 48 hrs by sulforhodamine B assay; conditions: U-251, 48 h
[34] = tested on: SNB-75; test: Cytotoxicity against human SNB75 cells after 48 hrs by sulforhodamine B assay; conditions: SNB-75, 48 h
[35] = tested on: TK-10; test: Cytotoxicity against human TK10 cells after 48 hrs by sulforhodamine B assay; conditions: TK-10, 48 h
[36] = tested on: A549; test: Cytotoxicity against human A549 cells after 48 hrs by sulforhodamine B assay; conditions: A549, 48 h
[37] = tested on: NCI-H460; test: Cytotoxicity against human NCI-H460 cell assessed as cell death after 12 hrs by Hoechst 33342/propidium iodide staining based fluorescence microscopy; conditions: NCI-H460, 12 h
[38] = tested on: NCI-H522; test: Cytotoxicity against human NCI-H522 cells after 48 hrs by sulforhodamine B assay; conditions: NCI-H522, 48 h
[39] = tested on: UACC-257; test: Cytotoxicity against human UACC257 cells after 48 hrs by sulforhodamine B assay; conditions: UACC-257, 48 h
[40] = tested on: Malme-3M; test: Cytotoxicity against human MALME-3M cells after 48 hrs by sulforhodamine B assay
[41] = tested on: ACHN; test: Cytotoxicity against human ACHN cells after 48 hrs by sulforhodamine B assay
[42] = tested on: SR; test: Cytotoxicity against human SR cells after 48 hrs by sulforhodamine B assay
[43] = tested on: EKVX; test: Cytotoxicity against human EKVX cells after 48 hrs by sulforhodamine B assay
[44] = tested on: OVCAR-3; test: Cytotoxicity against human OVCAR3 cells after 48 hrs by sulforhodamine B assay; conditions: OVCAR-3, 48 h
[45] = tested on: 786-0; test: Cytotoxicity against human 786-0 cells after 48 hrs by sulforhodamine B assay; conditions: 786-0, 48 h
[46] = tested on: SF-268; test: Cytotoxicity against human SF268 cells after 48 hrs by sulforhodamine B assay; conditions: SF-268, 48 h
[47] = tested on: KM12; test: Cytotoxicity against human KM12 cells after 48 hrs by sulforhodamine B assay; conditions: KM12, 48 h
[48] = tested on: NCI-H460; test: Cytotoxicity against human NCI-H460 cells after 48 hrs by sulforhodamine B assay; conditions: NCI-H460, 48 h
[49] = tested on: PC-3; test: Cytotoxicity against human PC3 cells after 48 hrs by sulforhodamine B assay; conditions: PC-3, 48 h
[50] = tested on: HOP-62; test: Cytotoxicity against human HOP62 cells after 48 hrs by sulforhodamine B assay; conditions: HOP-62, 48 h
[51] = tested on: T47D; test: Cytotoxicity against human T47D cells after 48 hrs by sulforhodamine B assay
[52] = tested on: NCI-H23; test: Cytotoxicity against human NCI-H23 cells after 48 hrs by sulforhodamine B assay; conditions: NCI-H23, 48 h
[53] = tested on: NCI-H460; test: Induction of apoptosis in human NCI-H460 cells in at 50 nM after 12 hrs by Hoechst 33342/propidium iodide staining based fluorescence microscopy
[54] = tested on: SK-OV-3; test: Cytotoxicity against human SKOV3 cells after 48 hrs by sulforhodamine B assay; conditions: SK-OV-3, 48 h
[55] = tested on: SNB-19; test: Cytotoxicity against human SNB19 cells after 48 hrs by sulforhodamine B assay; conditions: SNB-19, 48 h
[56] = tested on: HT-29; test: Cytotoxicity against human HT-29 cells after 48 hrs by sulforhodamine B assay; conditions: HT-29, 48 h

Compound: C[C@@H]1O[C@@H](O[C@H]2CC[C@@]3(C)[C@H](CC[C@@H]4[C@@H]3CC[C@]3(C)[C@@H](C5=CC(=O)OC5)CC[C@]43O)C2)CC[C@H]1O [RAMNODIGIN]
- Activity [1]: 15.1%
- GI50 [2]: 19.3 nM
- Activity [3]: 100%
- Activity [4]: 100%
- Activity [5]: 100%
- GI50 [6]: 2.5 nM
- GI50 [7]: 7.8 nM
- Activity [8]: 87.28%
- GI50 [9]: 11.3 nM
- GI50 [10]: 7.78 nM
- GI50 [11]: 3.45 nM
- GI50 [12]: 23.1 nM
- GI50 [13]: 11.1 nM
- GI50 [14]: 19.3 nM
- GI50 [15]: 4.57 nM
- GI50 [16]: 2.57 nM
- Activity [17]: 100%
- GI50 [18]: 20.5 nM
- GI50 [19]: 29.6 nM
- GI50 [20]: 5.89 nM
- GI50 [21]: 12.7 nM
- GI50 [22]: 10.4 nM
- GI50 [23]: 5.15 nM
- GI50 [24]: 5.44 nM
- GI50 [25]: 33.9 nM
- GI50 [26]: 27.7 nM
- GI50 [27]: 23.5 nM
- Activity [28]: 53.65%
- GI50 [29]: 3.61 nM
- GI50 [30]: 11.8 nM
- GI50 [31]: 18.9 nM
- GI50 [32]: 20.7 nM
- GI50 [33]: 2.57 nM
- GI50 [34]: 14.9 nM
- GI50 [35]: 3.75 nM
- GI50 [36]: 1.56 nM
- pIC50 [37]: 7.32
- GI50 [38]: 9.38 nM
- GI50 [39]: 19.6 nM
- GI50 [40]: 18.3 nM
- GI50 [41]: 4.31 nM
- GI50 [42]: 2.25 nM
- GI50 [43]: 5.13 nM
- GI50 [44]: 4.94 nM
- GI50 [45]: 6.21 nM
- GI50 [46]: 4.28 nM
- GI50 [47]: 32.4 nM
- GI50 [48]: 3.83 nM
- GI50 [49]: 9.55 nM
- GI50 [50]: 8.55 nM
- GI50 [51]: 21 nM
- GI50 [52]: 4.13 nM
- Activity [53]: 45.71%
- GI50 [54]: 22.2 nM
- GI50 [55]: 37.5 nM
- GI50 [56]: 11.9 nM

Compound: C[C@H]1O[C@H](O[C@H]2CC[C@@]3(C)[C@H](CC[C@@H]4[C@@H]3CC[C@]3(C)[C@@H](C5=CC(=O)OC5)CC[C@]43O)C2)CC[C@@H]1O
- Activity [1]: 16.63%
- GI50 [2]: 156 nM
- Activity [3]: 100%
- Activity [4]: 89.05%
- Activity [5]: 100%
- GI50 [6]: 76.7 nM
- GI50 [7]: 43.8 nM
- Activity [8]: 24.88%
- GI50 [9]: 128 nM
- GI50 [10]: 106 nM
- GI50 [11]: 30.5 nM
- GI50 [12]: 186 nM
- GI50 [13]: 52.6 nM
- GI50 [14]: 168 nM
- GI50 [15]: 26.1 nM
- GI50 [16]: 35.3 nM
- Activity [17]: 58.34%
- GI50 [18]: 116 nM
- GI50 [19]: 348 nM
- GI50 [20]: 79.3 nM
- GI50 [21]: 168 nM
- GI50 [22]: 71.6 nM
- GI50 [23]: 57 nM
- GI50 [24]: 37.1 nM
- GI50 [25]: 392 nM
- GI50 [26]: 115 nM
- GI50 [27]: 117 nM
- Activity [28]: 19.63%
- GI50 [29]: 40.9 nM
- GI50 [30]: 60.6 nM
- GI50 [31]: 191 nM
- GI50 [32]: 131 nM
- GI50 [33]: 35.3 nM
- GI50 [34]: 99 nM
- GI50 [35]: 46.3 nM
- GI50 [36]: 30.6 nM
- pIC50 [37]: 6.41
- GI50 [38]: 40.8 nM
- GI50 [39]: 157 nM
- GI50 [40]: 182 nM
- GI50 [41]: 34.8 nM
- GI50 [42]: 79.5 nM
- GI50 [43]: 62.1 nM
- GI50 [44]: 47.8 nM
- GI50 [45]: 58.2 nM
- GI50 [46]: 37.8 nM
- GI50 [47]: 228 nM
- GI50 [48]: 35.1 nM
- GI50 [49]: 101 nM
- GI50 [50]: 56.4 nM
- GI50 [51]: 409 nM
- GI50 [52]: 42.7 nM
- Activity [53]: 15.33%
- GI50 [54]: 194 nM
- GI50 [55]: 315 nM
- GI50 [56]: 97 nM
